Source: ChEMBL document CHEMBL6127088, “Novel 2-aminothiazole analogues both as polymyxin E synergist and antimicrobial agent against multidrug-resistant Gram-positive bacteria” (2024)
Converted amounts (≈) assume the structure as drawn.

Columns and labels:
Type in all cases: functional
[1] = system: Acinetobacter baumannii; assay: Antimicrobial activity against Acinetobacter baumannii ATCC 19606 incubated for 18 hrs by broth microdilution method
[2] = system: Acinetobacter baumannii; assay: Synergistic antimicrobial activity against Acinetobacter baumannii ATCC 19606 assessed as fractional inhibitory concentration index in presence of polymyxin E incubated for 18 to 20 hrs by chequerboard assay; details: time 18-20 hrs
[3] = system: Staphylococcus aureus; assay: Antimicrobial activity against methicillin/ofloxacin-resistant Staphylococcus aureus ATCC 43300 assessed as minimum inhibitory concentration incubated for 18 hrs by broth microdilution method
[4] = system: Bacillus subtilis; assay: Antimicrobial activity against Bacillus subtilis ATCC 20678 incubated for 18 hrs by broth microdilution method
[5] = system: Enterococcus faecalis; assay: Antimicrobial activity against vancomycin-resistant Enterococcus faecalis ATCC 51299 assessed as minimum inhibitory concentration incubated for 18 hrs by broth microdilution method

For `Fc1ccc(-c2csc(Nc3ccc(C(F)(F)F)cc3F)n2)c(F)c1`, the MIC [1] was greater than 256 µg/mL, the “fractional inhibitory concentration index (FICI)” value [2] was 1.031 and the MIC [3] was 256 µg/mL (≈ 684 µM). The MIC [4] was 256 µg/mL (≈ 684 µM) and the MIC [5] was 256 µg/mL (≈ 684 µM).

In the case of `Fc1ccc(-c2csc(Nc3cccc(C(F)(F)F)c3)n2)c(F)c1`, the MIC [1] is reported as greater than 256 µg/mL, the “fractional inhibitory concentration index (FICI)” value [2] is reported as 0.094 and the MIC [3] is reported as 4 µg/mL (≈ 11.2 µM). The MIC [4] was 2 µg/mL (≈ 5.61 µM) and the MIC [5] was 2 µg/mL (≈ 5.61 µM).

`Fc1cc(Nc2nc(C3CCOCC3)cs2)cc(C(F)(F)F)c1` was tested, and the MIC [1] was greater than 256 µg/mL, the “fractional inhibitory concentration index (FICI)” value [2] was 1.031 and the MIC [3] was 64 µg/mL (≈ 185 µM). For the same compound, the MIC [4] was 64 µg/mL (≈ 185 µM) and the MIC [5] was 128 µg/mL (≈ 370 µM).

In the case of `Fc1cc(Nc2nc(-c3ccc(F)cc3F)cs2)cc(C(F)(F)F)c1`, the MIC [1] is reported as greater than 256 µg/mL, the “fractional inhibitory concentration index (FICI)” value [2] is reported as 0.062 and the MIC [3] is reported as 2 µg/mL (≈ 5.34 µM). For the same compound, the MIC [4] was 2 µg/mL (≈ 5.34 µM) and the MIC [5] was 2 µg/mL (≈ 5.34 µM).

In the case of `Cc1ccc(C(F)(F)F)cc1Nc1nc(-c2ccc(F)cc2F)cs1`, the MIC [1] is reported as greater than 256 µg/mL, the “fractional inhibitory concentration index (FICI)” value [2] is reported as 0.093 and the MIC [3] is reported as 256 µg/mL (≈ 691 µM). It also gave an MIC [4] of 2 µg/mL (≈ 5.4 µM) and an MIC [5] of 256 µg/mL (≈ 691 µM).

`Fc1ccc(-c2csc(Nc3ccccc3C(F)(F)F)n2)c(F)c1` was tested, and the MIC [1] was greater than 256 µg/mL, the “fractional inhibitory concentration index (FICI)” value [2] was 0.156 and the MIC [3] was 8 µg/mL (≈ 22.5 µM). The MIC [4] was 8 µg/mL (≈ 22.5 µM) and the MIC [5] was 4 µg/mL (≈ 11.2 µM).

For `COc1cc(Nc2nc(-c3ccc(F)cc3F)cs2)ccc1C(F)(F)F`, the MIC [1] was greater than 256 µg/mL, the “fractional inhibitory concentration index (FICI)” value [2] was 0.187 and the MIC [3] was 2 µg/mL (≈ 5.18 µM). For the same compound, the MIC [4] was 2 µg/mL (≈ 5.18 µM) and the MIC [5] was 2 µg/mL (≈ 5.18 µM).

`Fc1cc(Nc2nc(C3CC3)cs2)cc(C(F)(F)F)c1` was tested, and the MIC [1] was greater than 256 µg/mL, the “fractional inhibitory concentration index (FICI)” value [2] was 0.187 and the MIC [3] was 32 µg/mL (≈ 106 µM). For the same compound, the MIC [4] was 16 µg/mL (≈ 52.9 µM) and the MIC [5] was 8 µg/mL (≈ 26.5 µM).

With `Fc1ccc(-c2csc(Nc3ccccn3)n2)c(F)c1` the MIC [1] was 64 µg/mL (≈ 221 µM), the “fractional inhibitory concentration index (FICI)” value [2] was 1.031 and the MIC [3] was 256 µg/mL (≈ 885 µM). The MIC [4] was 256 µg/mL (≈ 885 µM) and the MIC [5] was 256 µg/mL (≈ 885 µM).

With `C/C(=N\Nc1ccc(C(=O)O)cn1)c1csc(Nc2cc(F)cc(C(F)(F)F)c2)n1` the MIC [1] was greater than 256 µg/mL, the “fractional inhibitory concentration index (FICI)” value [2] was 1.031 and the MIC [3] was 64 µg/mL (≈ 146 µM). The MIC [4] was 64 µg/mL (≈ 146 µM) and the MIC [5] was 128 µg/mL (≈ 291 µM).

In the case of `C/C(=N\Nc1cnccn1)c1csc(Nc2cc(F)cc(C(F)(F)F)c2)n1`, the MIC [1] is reported as 128 µg/mL (≈ 323 µM), the “fractional inhibitory concentration index (FICI)” value [2] is reported as 0.75 and the MIC [3] is reported as 64 µg/mL (≈ 161 µM). The MIC [4] was 256 µg/mL (≈ 646 µM) and the MIC [5] was 128 µg/mL (≈ 323 µM).

For `Fc1cc(Nc2nc(-c3ccco3)cs2)cc(C(F)(F)F)c1`, the MIC [1] was greater than 256 µg/mL, the “fractional inhibitory concentration index (FICI)” value [2] was 0.187 and the MIC [3] was 8 µg/mL (≈ 24.4 µM). For the same compound, the MIC [4] was 4 µg/mL (≈ 12.2 µM) and the MIC [5] was 8 µg/mL (≈ 24.4 µM).

For `Fc1ccc(-c2csc(Nc3ccc(Cl)c(C(F)(F)F)c3)n2)c(F)c1`, the MIC [1] was greater than 256 µg/mL, the “fractional inhibitory concentration index (FICI)” value [2] was 0.094 and the MIC [3] was 1 µg/mL (≈ 2.56 µM). It also gave an MIC [4] of 1 µg/mL (≈ 2.56 µM) and an MIC [5] of 2 µg/mL (≈ 5.12 µM).

For `Oc1ccc(Nc2nc(-c3ccc(F)cc3F)cs2)cc1C(F)(F)F`, the MIC [1] was greater than 256 µg/mL, the “fractional inhibitory concentration index (FICI)” value [2] was 0.187 and the MIC [3] was 4 µg/mL (≈ 10.7 µM). It also gave an MIC [4] of 2 µg/mL (≈ 5.37 µM) and an MIC [5] of 2 µg/mL (≈ 5.37 µM).

For `Fc1ccc(-c2csc(Nc3ccc(C(F)(F)F)cc3Cl)n2)c(F)c1`, the MIC [1] was greater than 256 µg/mL, the “fractional inhibitory concentration index (FICI)” value [2] was 1.031 and the MIC [3] was 256 µg/mL (≈ 655 µM). For the same compound, the MIC [4] was 256 µg/mL (≈ 655 µM) and the MIC [5] was 256 µg/mL (≈ 655 µM).

`Cn1cc(-c2csc(Nc3cc(F)cc(C(F)(F)F)c3)n2)cn1` was tested, and the MIC [1] was greater than 256 µg/mL, the “fractional inhibitory concentration index (FICI)” value [2] was 0.281 and the MIC [3] was 256 µg/mL (≈ 748 µM). For the same compound, the MIC [4] was 256 µg/mL (≈ 748 µM) and the MIC [5] was 256 µg/mL (≈ 748 µM).

For `C/C(=N\NC(=N)N)c1csc(Nc2cc(F)cc(C(F)(F)F)c2)n1`, the MIC [1] was greater than 256 µg/mL, the “fractional inhibitory concentration index (FICI)” value [2] was 0.75 and the MIC [3] was 8 µg/mL (≈ 22.2 µM). The MIC [4] was 4 µg/mL (≈ 11.1 µM) and the MIC [5] was 8 µg/mL (≈ 22.2 µM).
